According to US8273769B2, “Phenoxy acetic acid derivatives” (Merck Serono SA, priority 2009, dated 2012):

molecular target: T1, CRTH2 (Homo sapiens, UniProt Q9Y5Y4); assay: Radioligand binding Scintillation Proximity Assay ([3H]PGD2, hCRTH2-CHO cell membranes); design: host or cells: CHO cells; settings: 1.5 nM [3H]PGD2, hCRTH2-CHO cell membranes, SPA
T1 sequence (Q9Y5Y4 1-395): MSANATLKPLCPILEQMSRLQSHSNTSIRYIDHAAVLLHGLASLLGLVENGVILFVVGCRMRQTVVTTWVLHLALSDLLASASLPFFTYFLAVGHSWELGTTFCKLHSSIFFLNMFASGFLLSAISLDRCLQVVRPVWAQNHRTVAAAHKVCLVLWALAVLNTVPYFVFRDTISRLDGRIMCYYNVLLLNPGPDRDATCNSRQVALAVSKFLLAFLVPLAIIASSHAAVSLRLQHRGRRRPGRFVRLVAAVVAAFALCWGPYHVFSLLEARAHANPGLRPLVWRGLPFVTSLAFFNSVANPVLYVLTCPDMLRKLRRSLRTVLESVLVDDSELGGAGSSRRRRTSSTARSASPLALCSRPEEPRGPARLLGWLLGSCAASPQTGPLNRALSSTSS
Description: Adherent CHO cells expressing hCRTH2 (Euroscreen, Belgium) were cultured in 225 cm^2 cell culture flasks (Corning, USA) in 30 ml of medium. After two rinses of phosphate buffered saline (PBS), cells were harvested in 10 ml of PBS containing 1 mM EDTA, centrifuged at 500×g for 5 min at 4° C. and frozen at −80° C. The pellet was re-suspended in 50 mM Tris-HCl, pH 7.4, 2 mM EDTA, 250 mM Sucrose, containing protease inhibitor cocktail tablets, (Complete EDTA-free, Roche, Germany) and incubated 30 min at 4° C. Cells were disrupted by nitrogen cavitation (Parr Instruments, USA) at 4° C. (800 p.s.i. for 30 min), and centrifuged at 500×g for 10 min at 4° C. Pellet containing nuclei and cellular debris was discarded and supernatant was centrifuged 60 min at 4° C. at 45000×g. Membrane pellet was re-suspended in storage buffer (10 mM HEPES/KOH pH 7.4, 1 mM EDTA, 250 mM sucrose, protease inhibitor cocktail tablets) using Dounce homogenization and frozen in liquid nitrogen, and stored at −80° C.
The inhibitory activity can be investigated by a radioligand binding Scintillation Proximity Assay (SPA) (Sawyer et al., Br. J. Pharmocol 2002, 137, 1163-72). The SPA radioligand binding assay was performed at room temperature in binding buffer (10 mM HEPES/KOH pH 7.4, 10 mM MnCl2, with protease inhibitor cocktail tablets), containing 1.5 nM [^3H]PGD2 (Perkin Elmer), 10-50 μg/ml of hCRTH2-CHO cell membrane protein and 2 mg/ml of Wheat-germ agglutinin Sintillation Proximity Assay beads (RPNQ0001, GE-Healthcare) in a final volume of 100 μl in 96 well plates (Corning, USA). Non-specific binding was determined in the presence of 10 μM PGD2 (Cayman, USA). Competing Compounds of Formula (I) were diluted in dimethylsulphoxide so that the total volume of dimethylsulfoxide was kept constant at 1% dimethylsulphoxide (Me2SO). Serial dilutions of 100 μM to 100 pM were prepared and 10 μl each of the compounds of Formula (I) stock solutions were added to the binding assay reagents and incubated for 90 min with agitation at room temperature. Binding activity was determined by using a 1450 Micro-beta scintillation counter (Wallac, UK).

SMILES | IC50 [nM]
Cc1ccc(S(=O)(=O)N(C)CCCN(C)C)cc1C#Cc1cc(Cl)ccc1OCC(=O)O [Example 119, {4-chloro-2-[(5-{[[3-(dimethylamino)propyl](methyl)amino]sulfonyl}-2-methylphenyl)ethynyl]phenoxy}acetic acid] | 369
CCCNS(=O)(=O)c1ccc(C)c(C#Cc2cc(Cl)ccc2OCC(=O)O)c1 [Example 118, [4-chloro-2-({2-methyl-5-[(propylamino)sulfonyl]phenyl}ethynyl)phenoxy]acetic acid] | 4
Cc1ccc(S(=O)(=O)N(C)CC(C)C)cc1C#Cc1cc(Cl)ccc1OCC(=O)O [Example 110, {4-chloro-2-[(5-{[isobutyl(methyl)amino]sulfonyl}-2-methylphenyl)ethynyl]phenoxy}acetic acid] | 5
Cn1ccnc1C#Cc1cc(Cl)ccc1OCC(=O)O [Example 11, {4-chloro-2-[(1-methyl-1H-imidazol-2-yl)ethynyl]phenoxy}acetic acid] | 1770
CC1(O)c2ccc(C#Cc3cc(Cl)ccc3OCC(=O)O)cc2S(=O)(=O)C1(C)C (stereo not drawn) [Example 160, {4-chloro-2-[(3-hydroxy-2,2,3-trimethyl-1,1-dioxido-2,3-dihydro-1-benzothien-6-yl)ethynyl]phenoxy}acetic acid] | 32
Cc1ccc(S(=O)(=O)Cc2ccccc2)cc1C#Cc1cc(Cl)ccc1OCC(=O)O [Example 91, (2-{[5-(benzylsulfonyl)-2-methylphenyl]ethynyl}-4-chlorophenoxy)acetic acid] | 7
CCCS(=O)(=O)c1cccc(C#Cc2c(OCC(=O)O)ccc3ccccc23)c1 [Example 148, [(1-{[3-(propylsulfonyl)phenyl]ethynyl}-2-naphthyl)oxy]acetic acid] | 56
O=C(O)COc1ccc(Cl)cc1C#Cc1ccccn1 [Example 13, [4-chloro-2-(pyridin-2-ylethynyl)phenoxy]acetic acid] | 1440
COCc1ccc(F)c(C#Cc2cc(Cl)ccc2OCC(=O)O)c1 [Example 30, (4-chloro-2-{[2-fluoro-5-(methoxymethyl)phenyl]ethynyl}phenoxy)acetic acid] | 85
CCCS(=O)(=O)c1cccc(C#Cc2cc(Cl)cnc2OCC(=O)O)c1 [Example 128, [(5-chloro-3-{[3-(propylsulfonyl)phenyl]ethynyl}pyridin-2-yl)oxy]acetic acid] | 63
N#Cc1ccc(OCC(=O)O)c(C#Cc2cncc(S(=O)(=O)N3CCOCC3)c2)c1 [Example 77, (4-cyano-2-{[5-(morpholin-4-ylsulfonyl)pyridin-3-yl]ethynyl}phenoxy)acetic acid] | 360
CC(C)(C)N1C(=O)c2ccc(C#Cc3cc(Cl)ccc3OCC(=O)O)cc2S1(=O)=O [Example 157, {2-[(2-tert-butyl-1,1-dioxido-3-oxo-2,3-dihydro-1,2-benzisothiazol-6-yl)ethynyl]-4-chlorophenoxy}acetic acid] | 17
CN(C)C(=O)c1ccc(C#Cc2cc(Cl)ccc2OCC(=O)O)cc1 [Example 125, [4-chloro-2-({4-[(dimethylamino)carbonyl]phenyl}ethynyl)phenoxy]acetic acid] | 57
O=C(O)COc1ccc2ccccc2c1C#Cc1cccc(O)c1 [Example 147, ({1-[(3-hydroxyphenyl)ethynyl]-2-naphthyl}oxy)acetic acid] | 102
O=C(O)COc1cc(F)ccc1C#Cc1ccccc1Cl [Example 37, {2-[(2-chlorophenyl)ethynyl]-5-fluorophenoxy}acetic acid] | 5940
CC1(C)C(O)c2ccc(C#Cc3cc(Cl)ccc3OCC(=O)O)cc2S1(=O)=O (stereo not drawn) [Example 159, {4-chloro-2-[(3-hydroxy-2,2-dimethyl-1,1-dioxido-2,3-dihydro-1-benzothien-6-yl)ethynyl]phenoxy}acetic acid] | 37
CC(C)S(=O)(=O)c1cc(C#Cc2cc(Cl)ccc2OCC(=O)O)ccc1C(=O)N1CCOCC1 [Example 167, (4-chloro-2-{[3-(isopropylsulfonyl)-4-(morpholin-4-ylcarbonyl)phenyl]ethynyl}phenoxy)acetic acid] | 100

SMILES | IC50 [nM]
CCCS(=O)(=O)c1cccc(C#Cc2cc(-c3ccsc3)ccc2OCC(=O)O)c1 [Example 133, [2-{[3-(propylsulfonyl)phenyl]ethynyl}-4-(3-thienyl)phenoxy]acetic acid] | 23
O=C(O)COc1ccc(Cl)cc1C#Cc1ccccc1 [Example 1, [4-chloro-2-(phenylethynyl)phenoxy]acetic acid] | 76
O=C(O)COc1ccc(Cl)cc1C#Cc1cccc(C(F)(F)F)c1 [Example 7, (4-chloro-2-{[3-(trifluoromethyl)phenyl]ethynyl}phenoxy)acetic acid] | 111
Cc1ccc(S(=O)(=O)C(C)C)cc1C#Cc1cc(Cl)ccc1OCC(=O)O [Example 51, (4-chloro-2-{[5-(isopropylsulfonyl)-2-methylphenyl]ethynyl}phenoxy)acetic acid] | 8
CCCC(Oc1ccc(Cl)cc1C#Cc1cc(S(=O)(=O)CCC)ccc1C)C(=O)O (stereo not drawn) [Example 171, 2-(4-chloro-2-{[2-methyl-5-(propylsulfonyl)phenyl]ethynyl}phenoxy)pentanoic acid] | 66
CCCN(CCC)S(=O)(=O)c1ccc(C)c(C#Cc2cc(Cl)ccc2OCC(=O)O)c1 [Example 116, [4-chloro-2-({5-[(dipropylamino)sulfonyl]-2-methylphenyl}ethynyl)phenoxy]acetic acid] | 8
CN(C)C(=O)c1cccc(C#Cc2cc(Cl)ccc2OCC(=O)O)c1 [Example 127, [4-chloro-2-({3-[(dimethylamino)carbonyl]phenyl}ethynyl)phenoxy]acetic acid] | 68
Cc1nc(C)c(C#Cc2cc(Cl)ccc2OCC(=O)O)s1 [Example 24, {4-chloro-2-[(2,4-dimethyl-1,3-thiazol-5-yl)ethynyl]phenoxy}acetic acid] | 102
Cc1ccc(S(=O)(=O)NC(C)(C)C)cc1C#Cc1cc(Cl)ccc1OCC(=O)O [Example 85, [2-({5-[(tert-butylamino)sulfonyl]-2-methylphenyl}ethynyl)-4-chlorophenoxy]acetic acid] | 7
CCCCN(C)C(=O)c1ccc(C#Cc2cc(Cl)ccc2OCC(=O)O)cc1S(=O)(=O)C(C)C [Example 163, (2-{[4-{[butyl(methyl)amino]carbonyl}-3-(isopropylsulfonyl)phenyl]ethynyl}-4-chlorophenoxy)acetic acid] | 32
Cc1ccc(S(=O)(=O)CCO)cc1C#Cc1cc(C#N)ccc1OCC(=O)O [Example 64, [4-cyano-2-({5-[(2-hydroxyethyl)sulfonyl]-2-methylphenyl}ethynyl)phenoxy]acetic acid] | 136
Cc1ccc(S(=O)(=O)CCCO)cc1C#Cc1cc(C#N)ccc1OCC(=O)O [Example 73, [4-cyano-2-({5-[(3-hydroxypropyl)sulfonyl]-2-methylphenyl}ethynyl)phenoxy]acetic acid] | 57
O=C(O)COc1ccc(Cl)cc1C#Cc1cncc(S(=O)(=O)N2CCOCC2)c1 [Example 79, (4-chloro-2-{[5-(morpholin-4-ylsulfonyl)pyridin-3-yl]ethynyl}phenoxy)acetic acid] | 52
O=C(O)COc1ccc(Cl)cc1C#Cc1cccc(S(=O)(=O)CCCO)c1 [Example 19, [4-chloro-2-({3-[(3-hydroxypropyl)sulfonyl]phenyl}ethynyl)phenoxy]acetic acid] | 36
CCN(CC)S(=O)(=O)c1ccc(C)c(C#Cc2cc(Cl)ccc2OCC(=O)O)c1 [Example 81, [4-chloro-2-({5-[(diethylamino)sulfonyl]-2-methylphenyl}ethynyl)phenoxy]acetic acid] | 5
Cc1ccc(S(=O)(=O)N2CCC2)cc1C#Cc1cc(Cl)ccc1OCC(=O)O [Example 123, (2-{[5-(azetidin-1-ylsulfonyl)-2-methylphenyl]ethynyl}-4-chlorophenoxy)acetic acid] | 5
